Source: ChEMBL document CHEMBL4619760, “Anti-inflammatory Efficacy of Combined Natural Alkaloid Berberine and S1PR Modulator Fingolimod at Low Doses in Ulcerative Colitis Preclinical Models” (J Nat Prod, 2020)
Active and inactive are the calls of the source. No cut-off for these calls is given here.

What was measured:
Mus musculus [1] = experiment: Anti-colitis activity against DSS-induced C57BL/6 mouse model of subchronic relapsing colitis assessed as reduction in stool consistency scores at 0.3 mg/kg, po administered once daily for 14 days starting from day 5 post DSS challenge and measured on day 19; type: functional, organism-based
Mus musculus [2] = experiment: Anti-colitis activity against DSS-induced C57BL/6 mouse model of chronic relapsing colitis assessed as reduction in stool bleeding at 0.3 mg/kg, po administered once daily for 30 days starting from day 13 post DSS-challenge measured on day 43; type: functional, organism-based
Mus musculus [3] = experiment: Anti-colitis activity against DSS-induced C57BL/6 mouse model of chronic relapsing colitis assessed as reversal of DSS-induced colon shortening at 0.3 mg/kg, po administered once daily for 30 days starting from day 13 post DSS-challenge; type: functional, organism-based
Mus musculus [4] = experiment: Anti-colitis activity against DSS-induced C57BL/6 mouse model of subchronic relapsing colitis assessed as reduction in DSS-induced colon swelling at 0.15 mg/kg, po administered once daily for 30 days starting from day 13 post DSS-challenge cotreated with 20 mg/kg berberine; type: functional, organism-based
Mus musculus [5] = experiment: Anti-colitis activity against DSS-induced C57BL/6 mouse model of chronic relapsing colitis assessed as reduction in DSS-induced spleen swelling at 0.3 mg/kg, po administered once daily for 30 days starting from day 13 post DSS-challenge; type: functional, organism-based
Mus musculus [6] = experiment: Anti-colitis activity against DSS-induced C57BL/6 mouse model of chronic relapsing colitis assessed as reduction in DSS-induced spleen swelling at 0.15 mg/kg, po administered once daily for 30 days starting from day 13 post DSS-challenge cotreated with 20 mg/kg berberine; type: functional, organism-based
Mus musculus [7] = experiment: Anti-colitis activity against DSS-induced C57BL/6 mouse model of chronic relapsing colitis assessed as reduction in DSS-induced multiple erosive lesions in colon at 0.3 mg/kg, po administered once daily for 30 days starting from day 13 post DSS-challenge; type: functional, organism-based
Mus musculus [8] = experiment: Anti-colitis activity against DSS-induced C57BL/6 mouse model of chronic relapsing colitis assessed as reduction in DSS-induced loss of colon crypt and columnar epithelium at 0.3 mg/kg, po administered once daily for 30 days starting from day 13 post DSS-challenge; type: functional, organism-based
[9] = (§1) Toxicity in DSS-induced C57BL/6 mouse model of chronic relapsing colitis assessed as induction of abnormalities in heart at 0.3 mg/kg, po administered once daily for 30 days starting from day 13 post DSS-challenge by hematoxylin and eosin staining based light microscopic analysis; type: organism-based; conditions: in vivo, 720 h
[10] = (§2) Toxicity in DSS-induced C57BL/6 mouse model of chronic relapsing colitis assessed as induction of abnormalities in liver at 0.3 mg/kg, po administered once daily for 30 days starting from day 13 post DSS-challenge by hematoxylin and eosin staining based light microscopic analysis; type: organism-based; conditions: in vivo, 720 h
[11] = (§3) Toxicity in DSS-induced C57BL/6 mouse model of chronic relapsing colitis assessed as induction of abnormalities in kidney at 0.3 mg/kg, po administered once daily for 30 days starting from day 13 post DSS-challenge by hematoxylin and eosin staining based light microscopic analysis; type: organism-based; conditions: in vivo, 720 h
[12] = as §1, with “0.15” for “0.3”, “DSS-challenge cotreated with 20 mg/kg berberine” for “DSS-challenge”; type: organism-based; conditions: in vivo, 720 h
[13] = as §2, with “0.15” for “0.3”, “DSS-challenge cotreated with 20 mg/kg berberine” for “DSS-challenge”; type: organism-based; conditions: in vivo, 720 h
[14] = as §3, with “0.15” for “0.3”, “DSS-challenge cotreated with 20 mg/kg berberine” for “DSS-challenge”; type: organism-based; conditions: in vivo, 720 h
Mus musculus [15] = experiment: Antiinflammatory activity against DSS-induced C57BL/6 mouse model of subchronic relapsing colitis assessed as reduction in IL6 mRNA level at 0.15 mg/kg, po administered once daily for 14 days starting from day 5 post DSS-challenge cotreated with 20 mg/kg berberine by RT-qPCR analysis; type: functional, organism-based
Mus musculus [16] = experiment: Anti-colitis activity against DSS-induced C57BL/6 mouse model of subchronic relapsing colitis assessed as reduction in phosphorylated STAT3 level at 0.3 mg/kg, po administered once daily for 14 days starting from day 5 post DSS-challenge cotreated with 20 mg/kg berberine by Western blot analysis; type: functional, organism-based

CCCCCCCCc1ccc(CCC(N)(CO)CO)cc1.Cl [FINGOLIMOD HYDROCHLORIDE]
Activity (Mus musculus [1]): Active | Activity (Mus musculus [2]): Active | Activity (Mus musculus [3]): Active | Activity (Mus musculus [4]): inactive | Activity (Mus musculus [5]): Active | Activity (Mus musculus [6]): Active | Activity (Mus musculus [7]): Active | Activity (Mus musculus [8]): Active | Activity [9]: Non-Toxic | Activity [10]: Non-Toxic | Activity [11]: Non-Toxic | Activity [12]: Non-Toxic | Activity [13]: Non-Toxic | Activity [14]: Non-Toxic | Activity (Mus musculus [15]): Active | Activity (Mus musculus [16]): Active
